The NIST ThermoML archive (doi:10.1016/j.jct.2010.04.015)
± gives the expanded uncertainty stated by the source.

Settings: Liquid, Closed cell (Static) method

Row | SMILES | vapor or sublimation pressure (283.15 K) | vapor or sublimation pressure (293.14 K) | vapor or sublimation pressure (303.09 K) | vapor or sublimation pressure (313.08 K) | vapor or sublimation pressure (323.28 K) | vapor or sublimation pressure (333.12 K) | vapor or sublimation pressure (343.12 K) | vapor or sublimation pressure (363.17 K) | vapor or sublimation pressure (373.1 K) | vapor or sublimation pressure (293.29 K) | vapor or sublimation pressure (303.35 K) | vapor or sublimation pressure (313.24 K) | vapor or sublimation pressure (323.25 K) | vapor or sublimation pressure (332.57 K) | vapor or sublimation pressure (343.18 K) | vapor or sublimation pressure (353.17 K) | vapor or sublimation pressure (363.1 K) | vapor or sublimation pressure (373 K)
1 | CN(C)CCCO [3-dimethylamino-1-propanol] | 0.007 ± 0.0003 kPa | 0.016 ± 0.0006 kPa | 0.0346 ± 0.0009 kPa | 0.0707 ± 0.0014 kPa | 0.1418 ± 0.0021 kPa | 0.2604 ± 0.0031 kPa | 0.4742 ± 0.005 kPa | 1.419 ± 0.01 kPa | 2.315 ± 0.012 kPa | – | – | – | – | – | – | – | – | –
2 | CC(C)(N)CO [2-amino-2-methylpropan-1-ol] | – | – | – | – | – | – | – | – | – | 0.0415 ± 0.001 kPa | 0.0975 ± 0.0019 kPa | 0.2191 ± 0.0028 kPa | 0.4556 ± 0.0048 kPa | 0.8745 ± 0.0082 kPa | 1.659 ± 0.011 kPa | 2.933 ± 0.014 kPa | 4.987 ± 0.019 kPa | 8.142 ± 0.025 kPa
